{"source": "paper PMC8533176", "about": "“1,5-Benzodiazepin-2(3H)-ones: In Vitro Evaluation as Antiparkinsonian Agents” (Antioxidants, 2021)", "key": {"SH-SY5Y cells [1]": {"system": "SH-SY5Y cells", "experiment": "Mitochondrial superoxide levels (MitoSOX)", "assay_type": "cell-based, human", "conditions": "H2O2 250 µM; compounds 24 h before", "protocol": "Mitochondrial superoxide levels were measured with MitoSOX red (3,8-phenanthridinediamine, 5-(60-triphenylphosphoniumhexyl)-5,6-dihydro-6-phenyl) from Molecular Probes (Thermo Fisher Scientific, 29851Willow Creek Road, Eugene, OR, USA). After SH-SY5Y cell treatment in 96-well culture black clear bottom plates, the medium was removed and cells were washed with PBS and afterward, MitoSOX red (final concentration of 5 µM) in 200 µL of PBS was added and incubated for 20 min at 37 °C. After incubation, the cells were washed with warm PBS buffer, and fluorescence was measured at 510 nm excitation/640 nm emission wavelengths in a Varioskan microplate reader (Thermo Fisher Scientific, Vantaa, Finland)."}, "[2]": {"experiment": "Chemical reactivity with H2O2", "assay_type": "physicochemical", "conditions": "H2O2 500 µM, 37 °C, 4 h, DMEM:F12 without cells", "protocol": "In our case, before running the protection experiments under oxidative stress conditions, we carried out experiments to assess the potential reactivity of compounds 9, 11, 13, and 18 at four different concentrations (5, 10, 20, and 40 µM) with H2O2 500 µM at 37 °C for 4 h in DMEM:F12 (without phenol red, FBS, and cells). Curcumin was used as a control compound."}, "SH-SY5Y cells [3]": {"system": "SH-SY5Y cells", "experiment": "Mitochondrial membrane potential (JC-1)", "assay_type": "cell-based, human", "conditions": "400 µM H2O2 4 h; compounds 24 h before at different concentrations", "protocol": "The fluorescent dye 5,5′,6,6′-tetrachloro-1,1′,3,3′-tetraethylbenzimidazolylcarbocyanine iodide (JC-1) was used for measuring MMP [89]. A decrease in fluorescence intensity represents mitochondrial membrane depolarization. For fluorescence ratio detection under oxidative stress conditions, 96-well culture black clear bottom plates were seeded with 3 × 10^3 SH-SY5Y cells, and after 24-h incubation, they were treated with the test compound and left out for 24 h. Then, the cells were exposed to different H2O2 concentrations for 4 h. After the incubation period, the cells were washed twice with Hanks buffer and then stained with 5 µM JC-1 in culture media in the dark in a CO2 incubator at 37 °C for 20 min. At the end of the dye incubation period, cells were washed three times with Hanks buffer, and 200 µL of fresh buffer was added. Cells were analyzed with a Varioskan microplate reader. J-aggregate red fluorescence intensity was measured at λex = 535 nm and λem = 595 nm, while λem = 485 nm and λem = 535 nm was used for J-monomer green fluorescence. Results were expressed as the ratio of fluorescence intensity of J-aggregates to J-monomers. All the experiments were performed three times in quadruplicate for each compound concentration."}, "SH-SY5Y cells [4]": {"system": "SH-SY5Y cells", "experiment": "Lipid peroxidation (MDA, TBARS)", "assay_type": "cell-based, human", "conditions": "250 µM H2O2 24 h; 10 and 20 µM 24 h before", "protocol": "For MDA studies, 2 × 10^5 SH-SY5Y cells were seeded in 6-well culture plates. After 24 h, cells were treated with the test compound and incubated for another 24 h. After compound treatment, cells were exposed to H2O2 for 24 h. Then, the cells were washed twice with cold 50 mM PBS buffer, detached, and lysed with lysis buffer, and TBA was added to each sample tube and vortexed. The reaction mixture was incubated at 96 °C for 60 min. After incubation, samples were cooled and centrifuged 10 min at 10^4 rpm. Samples were dispensed in 96-well culture black clear bottom plates, and fluorescence was measured with a Varioskan microplate reader at λex = 540 nm and λem = 590 nm wavelengths. Protein concentration was measured by the Bradford protein assay. The levels of MDA were expressed as nmol/mg protein. Experiments were performed four times in triplicate."}, "[5]": {"experiment": "Ferric reducing antioxidant power (FRAP) assay", "assay_type": "biochemical", "design": "FRAP Assay Trolox Equivalents: unit not given here", "protocol": "FRAP reagent was prepared by mixing 10 mL of 300 mM acetate buffer with 1 mL of 10 mM 2,4,6-tripyridyl-S-triazine (TPTZ) in HCl 40 mM and 1mL of FeCl3·6H2O 20 mM. […] Trolox was used as assay control."}, "HepG2 cells": {"system": "HepG2 cells", "experiment": "Cytotoxicity, MTT assay, HepG2", "assay_type": "cell-based", "conditions": "Homo sapiens, HepG2; MTT, cytotoxicity; read-out: HepG2 IC50", "method_in_brief": "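Cells treated with 5–200 µM compound (DMSO vehicle, four replicates) after overnight attachment. Viability read by MTT reduction (2 h, 37 °C, dark; formazan in DMSO, A570) relative to vehicle controls; IC50 from dose–response regression.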"}, "[6]": {"experiment": "ABTS radical scavenging assay", "assay_type": "biochemical", "protocol": "The mixture was stored in the dark at room temperature for 16 h. […] All the compounds tested were dissolved in EtOH. […] The degree of decolorization was calculated as the percentage reduction of absorbance. […] Trolox was used as a reference antioxidant."}}}
{"molecule": "O=C1CC(c2ccccc2)=Nc2ccccc2N1", "note": "[Compound 18, 4-Phenyl-1H-1,5-benzodiazepin-2(3H)-one]", "values": [{"measurement": "Reduction in mitochondrial superoxide levels", "setting": "SH-SY5Y cells [1]", "value": "reduce mitochondrial superoxide levels in a dose-dependent manner"}, {"measurement": "Reaction with H2O2", "setting": "[2]", "value": "did not show any significant reaction"}, {"measurement": "MMP recovery", "setting": "SH-SY5Y cells [3]", "value": "10–25%"}, {"measurement": "Effect on MDA levels", "setting": "SH-SY5Y cells [4]", "value": "significantly prevented"}, {"measurement": "FRAP Assay Trolox Equivalents", "setting": "[5]", "value": 0.89}, {"measurement": "FRAP Assay Antioxidant Capacity (%) at 100 uM", "setting": "[5]; compound at 100 uM", "value": 45.7, "unit": "%"}, {"measurement": "FRAP Assay Antioxidant Capacity (%) at 200 uM", "setting": "[5]; compound at 200 uM", "value": 65.1, "unit": "%"}, {"measurement": "IC50", "setting": "HepG2 cells", "value": "224 ± 35", "unit": "µM"}, {"measurement": "IC50", "setting": "[6]; 30-min incubation", "value": "187 ± 15.2", "unit": "µM"}, {"measurement": "ABTS Assay TEAC50", "setting": "[6]; Equivalent antioxidant capacity at Trolox 50 mM", "value": 0.36}, {"measurement": "ABTS Assay TEAC100", "setting": "[6]; Equivalent antioxidant capacity at Trolox 100 mM", "value": 0.21}]}
